Measured values from patent US20100317647A1 (priority 2009, published 2010).

These compounds were tested against human Cat S (Homo sapiens, UniProt P25774) (assay: Cathepsin enzyme inhibition assay (fluorogenic peptide substrate cleavage)). Conditions: human Cat S 1 nM; substrate Z-Val-Val-Arg-AMC 20 μM; pH 6.5; fluorescence over 20 minutes.
Format: biochemical
Method in brief: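 IC50 values derived from fluorescence increase (ex 360 nm, em 465 nm) monitored for 20 minutes after substrate addition. Enzyme held at 1 nM with 20 μM Z-Val-Val-Arg-AMC, in pH 6.5 potassium phosphate buffer containing DTT, EDTA and Triton X-100.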

human Cat S, sequence (P25774 115-331): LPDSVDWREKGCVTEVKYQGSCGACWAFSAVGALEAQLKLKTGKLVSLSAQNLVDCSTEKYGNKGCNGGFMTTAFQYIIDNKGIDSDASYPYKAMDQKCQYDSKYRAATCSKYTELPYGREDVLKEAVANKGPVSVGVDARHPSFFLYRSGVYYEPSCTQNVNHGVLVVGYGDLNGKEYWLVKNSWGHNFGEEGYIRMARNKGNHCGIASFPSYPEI

IC50 | SMILES
19 nM | CN1CCC(C#N)(NC(=O)[C@@H]2C[C@@H](S(=O)(=O)c3ccc(Cl)cc3Cl)C[C@H]2OCc2ccc(Cl)cc2)CC1 (racemic) [Example 234, (1R,2R,4R) and (1S,2S,4S)-2-(4-Chloro-benzyloxy)-4-(2,4-dichloro-benzenesulfonyl)-cyclopentanecarboxylic acid (4-cyano-1-methyl-piperidin-4-yl)-amide]
7.3 nM | CN1CCC(C#N)(NC(=O)[C@@H]2C[C@@H](S(=O)(=O)c3ccccc3C(F)(F)F)C[C@H]2OCc2ccc(Cl)cc2)CC1 (racemic) [Example 235, (1R,2R,4R) and (1S,2S,4S)-2-(4-Chloro-benzyloxy)-4-(2-trifluoromethyl-benzenesulfonyl)-cyclopentanecarboxylic acid (4-cyano-1-methyl-piperidin-4-yl)-amide]
1.8 nM | CO[C@@H]1C[C@H](S(=O)(=O)c2ccc(-c3cnn(C)c3)cc2C(F)(F)F)C[C@H]1C(=O)NC1(C#N)CCN(C)CC1 (racemic) [Example 236, (1R,2R,4R) and (1S,2S,4S)-2-Methoxy-4-[4-(1-methyl-1H-pyrazol-4-yl)-2-trifluoromethyl-benzenesulfonyl]-cyclopentanecarboxylic acid (4-cyano-1-methyl-piperidin-4-yl)-amide]
2.2 nM | CCOC(=O)N1CCC(C#N)(NC(=O)[C@@H]2C[C@@H](S(=O)(=O)c3ccc(-c4cnn(C)c4)cc3C(F)(F)F)C[C@H]2OC)CC1 (racemic) [Example 237, 4-Cyano-4-({(1R,2R,4R) and (1S,2S,4S)-2-methoxy-4-[4-(1-methyl-1H-pyrazol-4-yl)-2-trifluoromethyl-benzenesulfonyl]-cyclopentanecarbonyl}-amino)-piperidine-1-carboxylic acid ethyl ester]
2.35 nM | CCN1CCC(C#N)(NC(=O)[C@@H]2C[C@@H](S(=O)(=O)c3ccc(-c4cnn(C)c4)cc3C(F)(F)F)C[C@H]2OC)CC1 (racemic) [Example 238, (1R,2R,4R) and (1S,2S,4S)-2-Methoxy-4-[4-(1-methyl-1H-pyrazol-4-yl)-2-trifluoromethyl-benzenesulfonyl]-cyclopentanecarboxylic acid (4-cyano-1-ethyl-piperidin-4-yl)-amide]
6.25 nM | CCN1CCC(C#N)(NC(=O)[C@@H]2C[C@@H](S(=O)(=O)c3ccccc3C(F)(F)F)C[C@H]2OCc2ccc(Cl)cc2)CC1 (racemic) [Example 239, (1R,2R,4R) and (1S,2S,4S)-2-(4-Chloro-benzyloxy)-4-(2-trifluoromethyl-benzenesulfonyl)-cyclopentanecarboxylic acid (4-cyano-1-ethyl-piperidin-4-yl)-amide]
25.5 nM | CCN1CCC(C#N)(NC(=O)[C@@H]2C[C@@H](S(=O)(=O)c3ccc(Cl)cc3Cl)C[C@H]2OCc2ccc(Cl)cc2)CC1 (racemic) [Example 240, (1R,2R,4R) and (1S,2S,4S)-2-(4-Chloro-benzyloxy)-4-(2,4-dichloro-benzenesulfonyl)-cyclopentanecarboxylic acid (4-cyano-1-ethyl-piperidin-4-yl)-amide]
12 nM | CCOC(=O)N1CCC(C#N)(NC(=O)[C@@H]2C[C@@H](S(=O)(=O)c3ccccc3C(F)(F)F)C[C@H]2OCc2ccc(Cl)cc2)CC1 (racemic) [Example 241, 4-{[(1R,2R,4R) and (1S,2S,4S)-2-(4-Chloro-benzyloxy)-4-(2-trifluoromethyl-benzenesulfonyl)-cyclopentanecarbonyl]-amino}-4-cyano-piperidine-1-carboxylic acid ethyl ester]
92 nM | CCOC(=O)N1CCC(C#N)(NC(=O)[C@@H]2C[C@@H](S(=O)(=O)c3ccc(Cl)cc3Cl)C[C@H]2OCc2ccc(Cl)cc2)CC1 (racemic) [Example 242, 4-{[(1R,2R,4R) and (1S,2S,4S)-2-(4-Chloro-benzyloxy)-4-(2,4-dichloro-benzenesulfonyl)-cyclopentanecarbonyl]-amino}-4-cyano-piperidine-1-carboxylic acid ethyl ester]
1.45 nM | N#CC1(NC(=O)[C@@H]2C[C@@H](S(=O)(=O)c3ccccc3Cl)C[C@H]2Oc2ccc(Cl)cc2)CC1 (racemic) [Example 243, (1R,2R,4R) and (1S,2S,4S)-4-(2-Chloro-benzenesulfonyl)-2-(4-chloro-phenoxy)-cyclopentanecarboxylic acid (1-cyano-cyclopropyl)-amide]
14.7 nM | CC(C)(O[C@@H]1C[C@H](S(=O)(=O)c2ccccc2Cl)C[C@H]1C(=O)NC1(C#N)CC1)c1ccc(Cl)cc1 (racemic) [Example 244, (1R,2R,4R) and (1S,2S,4S)-2-(2-(4-chlorophenyl)propan-2-yloxy)-4-(2-chlorophenylsulfonyl)-N-(1-cyanocyclopropyl)cyclopentanecarboxamide]
11.4 nM | Cc1ccc(C(C)(C)O[C@@H]2C[C@H](S(=O)(=O)c3ccccc3Cl)C[C@H]2C(=O)NC2(C#N)CC2)cc1 (racemic) [Example 245, (1R,2R,4R) and (1S,2S,4S)-4-(2-chlorophenylsulfonyl)-N-(1-cyanocyclopropyl)-2-(2-p-tolylpropan-2-yloxy)cyclopentanecarboxamide]
1.25 nM | COCc1cn(-c2ccc(S(=O)(=O)[C@@H]3C[C@H](OC)[C@@H](C(=O)NC4(C#N)CC4)C3)c(C(F)(F)F)c2)nn1 (racemic) [Example 246, (1S,2S,4S) and (1R,2R,4R)-2-Methoxy-4-[4-(4-methoxymethyl-[1,2,3]triazol-1-yl)-2-trifluoromethyl-benzenesulfonyl]-cyclopentanecarboxylic acid (1-cyano-cyclopropyl)-amide]
5.98 nM | N#CC1(NC(=O)[C@@H]2C[C@@H](S(=O)(=O)c3ccccc3Cl)C[C@H]2OCc2ccc(C(F)(F)F)cc2)CC1 (racemic) [Example 247, (1R,2R,4R) and (1S,2S,4S)-4-(2-chlorophenylsulfonyl)-N-(1-cyanocyclopropyl)-2-(4-(trifluoromethyl)benzyloxy)cyclopentanecarboxamide]
3.5 nM | CS(=O)(=O)c1cc(Cl)ccc1CO[C@@H]1C[C@H](S(=O)(=O)c2ccccc2Cl)C[C@H]1C(=O)NC1(C#N)CC1 (racemic) [Example 248, (1R,2R,4R) and (1S,2S,4S)-4-(2-Chloro-benzenesulfonyl)-2-(4-chloro-2-methanesulfonyl-benzyloxy)-cyclopentanecarboxylic acid (1-cyano-cyclopropyl)-amide]
6.95 nM | N#CC1(NC(=O)[C@@H]2C[C@@H](S(=O)(=O)c3ccccc3Cl)C[C@H]2OCc2ccc(Cl)c(F)c2)CC1 (racemic) [Example 249, (1R,2R,4R) and (1S,2S,4S)-4-(2-Chloro-benzenesulfonyl)-2-(4-chloro-3-fluoro-benzyloxy)-cyclopentanecarboxylic acid (1-cyano-cyclopropyl)-amide]
62.5 nM | N#CC1(NC(=O)[C@@H]2C[C@@H](S(=O)(=O)c3ccccc3Cl)C[C@H]2OCc2ccc(Cl)c(Cl)c2)CC1 (racemic) [Example 250, (1R,2R,4R) and (1S,2S,4S)-4-(2-Chloro-benzenesulfonyl)-2-(3,4-dichloro-benzyloxy)-cyclopentanecarboxylic acid (1-cyano-cyclopropyl)-amide]
6.11 nM | N#CC1(NC(=O)[C@@H]2C[C@@H](S(=O)(=O)c3ccccc3Cl)C[C@H]2OCc2c(F)cc(Cl)cc2F)CC1 (racemic) [Example 251, (1R,2R,4R) and (1S,2S,4S)-4-(2-Chloro-benzenesulfonyl)-2-(4-chloro-2,6-difluoro-benzyloxy)-cyclopentanecarboxylic acid (1-cyano-cyclopropyl)-amide]
4.99 nM | N#CC1(NC(=O)[C@@H]2C[C@@H](S(=O)(=O)c3ccccc3Cl)C[C@H]2OCc2ccc(Cl)cc2F)CC1 (racemic) [Example 252, (1R,2R,4R) and (1S,2S,4S)-4-(2-Chloro-benzenesulfonyl)-2-(4-chloro-2-fluoro-benzyloxy)-cyclopentanecarboxylic acid (1-cyano-cyclopropyl)-amide]
0.675 nM | CO[C@H]1C[C@@H](S(=O)(=O)c2ccc(-n3cc(CCO)nn3)cc2C(F)(F)F)C[C@@H]1C(=O)NC1(C#N)CC1 (racemic) [Example 253, (1S,2S,4S) and (1R,2R,4R)-4-{4-[4-(2-Hydroxy-ethyl)-[1,2,3]triazol-1-yl]-2-trifluoromethyl-benzenesulfonyl}-2-methoxy-cyclopentanecarboxylic acid (1-cyano-cyclopropyl)-amide]
2.2 nM | N#CCNC(=O)[C@@H]1C[C@@H](S(=O)(=O)c2ccccc2Cl)C[C@H]1COc1ccc(Cl)cc1 (single isomer, unassigned) [Example 68]
810 nM | N#CCNC(=O)[C@@H]1C[C@H](S(=O)(=O)c2ccccc2Cl)C[C@H]1COc1ccc(Cl)cc1 (single isomer, unassigned) [Example 69]
3.4 nM | N#CC1(NC(=O)[C@@H]2C[C@@H](S(=O)(=O)c3ccccc3Cl)C[C@H]2COc2ccc(Cl)cc2)CC1 (single isomer, unassigned) [Example 70]
3080 nM | N#CC1(NC(=O)[C@@H]2C[C@H](S(=O)(=O)c3ccccc3Cl)C[C@H]2COc2ccc(Cl)cc2)CC1 (single isomer, unassigned) [Example 71]
160 nM | N#CC1(NC(=O)[C@H]2CC[C@H](S(=O)(=O)c3ccc(OCC(F)(F)F)cc3Cl)C2)CC1 (single isomer, unassigned) [Example 98]
500 nM | N#CC1(NC(=O)[C@H]2CC[C@@H](S(=O)(=O)c3ccc(OCC(F)(F)F)cc3Cl)C2)CC1 (single isomer, unassigned) [Example 99]
170 nM | N#CC1(NC(=O)[C@H]2CC[C@H](S(=O)(=O)c3ccc(-n4cccn4)cc3Cl)C2)CC1 (single isomer, unassigned) [Example 100]
610 nM | N#CC1(NC(=O)[C@H]2CC[C@@H](S(=O)(=O)c3ccc(-n4cccn4)cc3Cl)C2)CC1 (single isomer, unassigned) [Example 101]
20.7 nM | COC[C@@H]1C[C@H](S(=O)(=O)c2ccccc2Cl)C[C@H]1C(=O)NCC#N (single isomer, unassigned) [Example 103]
